Test results taken from US10525269B2, “Methods for improving heart function” (THE JOHNS HOPKINS UNIVERSITY, priority 2010, dated 2020).
Entries after “also recorded” stand apart in the source; their conditions may differ.

Key:
[1] = Pearce (2009); cited from earlier work
isolated myocytes = test: Myocyte sarcomere shortening and whole-cell calcium transients; assay type: cell-based, dog; design: effect of PTX on zinterol-stimulated shortening and Ca2+ transients: dose or concentration left out as unconfirmed
Experimental: Myocyte sarcomere shortening and whole-cell calcium transients were assessed with an inverted microscope (Ellipse TE2001, Nikon) equipped with an image-fluorescence system (MyoCam, IonOptix).
Adenovirus-mediated gene transfer of GFP, RGS2, or RGS3 was implemented by adding a minimal volume of the FBS-free MEM containing the gene-carrying adenovirus (100 multiplicities of infection). The full volume of FBS-free MEM was supplied after culture for another 1 to 2 hours. RGS expression and myocyte functional changes were assessed at 24 hours after transfection.

PKA = test: SR-localized PKA activity FRET sensor (SR-AKAR3) in myocytes; assay type: cell-based, dog
Source text: (§1) Adult myocytes were infected with an adenovirus expressing either the modified EPAC-based cAMP FRET sensor (ICUE3) (DiPilato et al. (1999) J Biol Chem. 274:22048-22052) or SR-localized PKA activity sensor SR-AKAR3 (Liu et al. (2011) Biochem Biophys Res Commun. 404:581-586). Just before study, cells were washed two times with Hanks' balanced salt solution and imaged at room temperature in the dark. Dual-emission ratio imaging used a 420DF20 excitation filter, a 450DRLP dichroic mirror, and two emission filters (475DF40 for cyan fluorescent protein and 535DF25 for yellow fluorescent protein) and was performed on a Zeiss Axiovert 200 M microscope with a MicroMAX BFT512 cooled charge-coupled device camera (Roper Scientific) controlled by MetaFluor 6.2 software (Universal Imaging). Fluorescent images (taken every 20 to 30 s) were background-corrected by subtracting autofluorescence intensities of untransfected cells (or background with no cells) from the emission intensities of cells expressing reporters.
To further clarify the nature of the altered β2-AR signalling, studies were performed in isolated myocytes infected with an adenovirus containing a plasma membrane-targeted adenosine 3′,5′-monophosphate (cAMP)-sensitive fluorescence resonance energy transfer (FRET) probe (ICUE3) based on the EPAC1 (exchange protein directly activated by cAMP 1) binding domain (FIG. 6A; DiPilato et al. (1999) J Biol Chem. 274:22048-22052). After 24 hours, cells were stimulated with either zinterol or fenoterol, each in the presence of a broad-spectrum phosphodiesterase (PDE) inhibitor, IBMX. […] Previous studies have proposed that reduced Gαi coupling to the β2-AR can modify the targeting of cAMP, resulting in enhanced protein kinase A (PKA) activation of sarcoplasmic reticulum (SR) calcium handling proteins and thus augmentation of the Ca^2+ and associated myocyte shortening (Kuschel et al. (1999) J. Biol. Chem. 274:22048-22052).

cAMP = test: Membrane-localized cAMP FRET probe (ICUE3) in isolated myocytes; assay type: cell-based, dog; conditions: in presence of IBMX
Source text: as §1, with “Fluorescent images (taken every 20 to 30 s) were background-corrected by subtracting autofluorescence intensities of untransfected cells (or background with no cells) from the emission intensities of cells expressing reporters.” left out
To further clarify the nature of the altered β2-AR signalling, studies were performed in isolated myocytes infected with an adenovirus containing a plasma membrane-targeted adenosine 3′,5′-monophosphate (cAMP)-sensitive fluorescence resonance energy transfer (FRET) probe (ICUE3) based on the EPAC1 (exchange protein directly activated by cAMP 1) binding domain (FIG. 6A; DiPilato et al. (1999) J Biol Chem. 274:22048-22052). […]

Q: Which “mortality in asthma use” value [1] does the source give for `CC(Cc1ccc(O)cc1)NCC(O)c1cc(O)cc(O)c1` (single isomer, unassigned) [fenoterol as a mixture of R,R-enantiomer and S,S-enantiomer, fenoterol] here?
A: Its value is “worsened death”.

Q: Which results are given for `CC(Cc1ccc(O)cc1)NCC(O)c1cc(O)cc(O)c1` (stereo not shown) [fenoterol]?
A: fenoterol response compared with zinterol alone (isolated myocytes; HFdys and HFsyn): augmented over zinterol alone; PKA activation at the SR (PKA; cells from all models): PKA activation was detected; PKA activation at the SR (PKA; cells from all models, listed as Fenoterol): stimulated PKA at the SR in all models; fenoterol-stimulated cAMP response (FRET ratio) (cAMP; all groups): all responded similarly; also recorded: similarly elevated response

Q: With `CC(C)NCC(O)c1ccc(O)c(O)c1` (stereo not shown) [isoproterenol] as the molecule, how does the “isoproterenol-stimulated shortening, relaxation, and peak calcium” value (isolated myocytes; AVA myocytes, compared with CRT) read?
A: The value was “similar”.

Q: And the “isoproterenol-stimulated sarcomere shortening and relengthening, peak Ca2+ transient and decay rate” value (isolated myocytes; myocytes from HFdys or HFsyn)?
A: Its value is “equally depressed; also recorded: markedly and similarly depressed”.

Q: And the “isoproterenol-stimulated sarcomere shortening and relengthening, peak Ca2+ transient and decay rate” value (isolated myocytes; myocytes from resynchronization models (CRT, V3A3))?
A: Its value is “back to near-control levels; also recorded: returned to control levels”.

Q: For `CC(C)(Cc1ccccc1)NCC(O)c1ccc(O)c(NS(C)(=O)=O)c1` (stereo not shown) [zinterol], which response to zinterol (isolated myocytes; AVA cells) is on record?
A: Its response to zinterol is “responded robustly”.

Q: What about the “shortening and Ca2+ transient response to zinterol” value (isolated myocytes; cells from resynchronized hearts) of the same molecule?
A: Its value is “enhanced responses”.

Q: And the “PKA activation at the SR” value (PKA; CRT cells)?
A: Its value is “activation was detectable; also recorded: showed PKA activation”.

Q: And the “PKA stimulation detected at the SR” value (PKA; myocytes from HFdys or HFsyn)?
A: The value was “negligible PKA stimulation”.

Q: And the “zinterol-stimulated cAMP increase (FRET ratio)” value (cAMP; resynchronization models vs other groups incl. control)?
A: Its value is “exceeded that in the other groups; also recorded: greater response”.

Q: For pertussis toxin [PTX], which “effect of PTX on zinterol-stimulated functional or Ca2+ response” value (isolated myocytes; AVA myocytes) is on record?
A: The value was “not further altered; also recorded: minimal augmentation”.

Q: And the “effect of PTX pretreatment on isoproterenol-stimulated sarcomere shortening (% SS) and whole-cell calcium transient” value (isolated myocytes; HFdys and HFsyn)?
A: Its value is “greatly enhanced both behaviors”.

Q: And the “effect of PTX on zinterol-stimulated shortening and Ca2+ transients” value (isolated myocytes; cells from HFdys and HFsyn)?
A: Its value is “greatly amplified the response; also recorded: marked augmentation”.

Q: What about the “effect of PTX on zinterol-stimulated shortening and Ca2+ transients” value (isolated myocytes; cells from resynchronized hearts (CRT, V3A3)) of the same molecule?
A: The value was “little changed”.

Q: What about the “effect of PTX on zinterol-stimulated shortening and Ca2+ transients” value (isolated myocytes; control myocytes) of the same molecule?
A: Its value is “augmented zinterol-stimulated shortening and Ca^2+ transients slightly”.

Q: And the “effect of PTX pretreatment on isoproterenol-stimulated sarcomere shortening (% SS) and whole-cell calcium transient” value (isolated myocytes; resynchronized models)?
A: Its value is “no impact”.
